Source: patent publication US9987277B2, “Carboxamide 4-[(4-pyridyl)amino] pryimidines for the treatment of hepatitis C” (Janssen Sciences Ireland UC, priority 2006, dated 2018)

Tested on: HCV type 1b replicon (NS3-NS5B) in Huh-7 luc/neo cells
Assay: HCV replicon assay (Huh-Luc luciferase)
Assay type: cell-based
Settings: Hepatitis C virus, Huh-7, 72 h, three days incubation, luciferase activity
Description: The compounds of formula (I) were examined for activity in the inhibition of HCV RNA replication in a cellular assay. […] The cellular assay was based on a bicistronic expression construct, as described by Lohmann et al. (1999) Science vol. 285 pp. 110-113 with modifications described by Krieger et al. (2001) Journal of Virology 75: 4614-4624, in a multi-target screening strategy. In essence, the method was as follows.
The assay utilized the stably transfected cell line Huh-7 luc/neo (hereafter referred to as Huh-Luc). This cell line harbors an RNA encoding a bicistronic expression construct comprising the wild type NS3-NS5B regions of HCV type 1b translated from an Internal Ribosome Entry Site (IRES) from encephalomyocarditis virus (EMCV), preceded by a reporter portion (FfL-luciferase), and a selectable marker portion (neo^R, neomycine phosphotransferase). The construct is bordered by 5′ and 3′ NTRs (non-translated regions) from HCV type 1b. Continued culture of the replicon cells in the presence of G418 (neo^R) is dependent on the replication of the HCV RNA. The stably transfected replicon cells that express HCV RNA, which replicates autonomously and to high levels, encoding inter alia luciferase, are used for screening the antiviral compounds.
The replicon cells were plated in 384 well plates in the presence of the test and control compounds which were added in various concentrations. Following an incubation of three days, HCV replication was measured by assaying luciferase activity (using standard luciferase assay substrates and reagents and a Perkin Elmer ViewLux™ ultraHTS microplate imager). Replicon cells in the control cultures have high luciferase expression in the absence of any inhibitor. The inhibitory activity of the compound on luciferase activity was monitored on the Huh-Luc cells, enabling a dose-response curve for each test compound. EC50 values were then calculated, which value represents the amount of the compound required to decrease by 50% the level of detected luciferase activity, or more specifically, the ability of the genetically linked HCV replicon RNA to replicate.
The following Table 1 lists compounds that were tested for activity in the inhibition of HCV RNA replication in a cellular assay according to the procedure described above. Table 1 provides as well structure characterization data for the compounds of formula (I) as described herein. […] In each case, the expected parent ion was observed, and the Table further provides the LC conditions under which the mass spectrum was measured as well as the retention time of the observed product.

| SMILES | EC50 [nM] |
| --- | --- |
| COc1cnc(-c2cc(Cl)ccc2F)nc1Nc1ccncc1C(=O)NCCCN1CCCC1=O [compound 1] | 84 |
| O=C(NC1CC1)c1cnccc1Nc1nc(-c2cc(Cl)ccc2F)ncc1C1CCCC1 [compound 6] | 12700 |
| COc1cnc(-c2cc(Cl)ccc2F)nc1Nc1ccncc1C(=O)NCCCN1CCOCC1 [compound 9] | 1100 |
| COc1cnc(-c2cc(Cl)ccc2F)nc1Nc1ccncc1C(=O)NCC(F)(F)F [compound 2] | 1160 |
| COc1cnc(-c2cc(Cl)ccc2F)nc1Nc1ccncc1C(=O)NCCCn1ccnc1 [compound 5] | 921 |
| COc1cnc(-c2cc(Cl)ccc2F)nc1Nc1ccncc1C(=O)NCCCN1CCCCC1C (stereo not drawn) [compound 13] | 550 |
| O=C(NCCO)c1cnccc1Nc1nc(-c2cc(Cl)ccc2F)ncc1C1CCCC1 [compound 8] | 16400 |
| COc1cnc(-c2cc(Cl)ccc2F)nc1Nc1ccncc1C(=O)NC[C@H]1CCCO1 [compound 3] | 2640 |
| COc1cnc(-c2cc(Cl)ccc2F)nc1Nc1ccncc1C(=O)NCCNCC(C)O (stereo not drawn) [compound 11] | 1140 |
| COc1cnc(-c2cc(Cl)ccc2F)nc1Nc1ccncc1C(=O)NCCN [compound 14] | 3670 |
| COc1cnc(-c2cc(Cl)ccc2F)nc1Nc1ccncc1C(=O)NCCNCCO [compound 10] | 1480 |
| CCOC(=O)CNC(=O)c1cnccc1Nc1nc(-c2cc(Cl)ccc2F)ncc1OC [compound 4] | 4620 |
